Structures are written as SMILES.

The subject of this assay is HCV genotype 1b replicon in Huh 7 cells. As to the kind of experiment: HCV replicon assay (1b_Huh-Luc/Neo-ET cell line, luciferase readout). Conditions: Hepatitis C virus; Table 1; genotype 1b replicon, Huh 7 cells, 72 h, luciferase; read-out: Inhibition of HCV genotype 1b. Format: cell-based. In a few lines: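 Huh 7 cells carrying a bicistronic genotype 1b luciferase replicon were treated with compound in triplicate the day after plating and incubated 72 h. Luciferase activity expressed as % of untreated control; EC50 from a four-parameter logistic fit, repeated several times.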
As to `COC(=O)N[C@H](C(=O)N1CCC[C@H]1c1ncc(-c2ccc3cc(-c4ccc(-c5cnc([C@@H]6COCCN6C(=O)[C@@H](NC(=O)OC)C(C)C)[nH]5)cc4)ccc3c2)[nH]1)C(C)C` [compound 139], the EC50 was below 1 nM. Then `COC(=O)N[C@H](C(=O)N1CCC[C@H]1c1ncc(-c2ccc(-c3ccc4cc(-c5cnc([C@@H]6COCCN6C(=O)[C@@H](NC(=O)OC)C(C)C)[nH]5)ccc4c3)cc2)[nH]1)C(C)C` [compound 140], with below 1 nM; and `COC(=O)N[C@H](C(=O)N1CCC[C@H]1c1ncc(-c2ccc(-c3ccc4cc(-c5cnc([C@@H]6CCCN6C(=O)[C@@H](NC(=O)OC)C6CCOCC6)[nH]5)ccc4c3)c(F)c2)[nH]1)C1CCOCC1` [compound 141], with below 1 nM; and `CC[C@@H](C)[C@H](NC(=O)OC)C(=O)N1CCC[C@H]1c1ncc(-c2ccc(-c3ccc4cc(-c5cnc([C@@H]6CCCN6C(=O)[C@@H](NC(=O)OC)[C@H](C)CC)[nH]5)ccc4c3)cc2)[nH]1` [compound 142], with below 1 nM. Then `COC(=O)N[C@H](C(=O)N1CCC[C@H]1c1ncc(-c2ccc(-c3ccc4cc(-c5cnc([C@@H]6CCCN6C(=O)[C@@H](NC(=O)OC)C6CC6)[nH]5)ccc4c3)cc2)[nH]1)C1CC1` [compound 143], with below 1 nM; and `CNC(=O)N[C@@H](C(=O)N1CCC[C@H]1c1ncc(-c2ccc(-c3cc4ccc(-c5cnc([C@@H]6CCCN6C(=O)[C@@H](NC(=O)OC)C6CCOCC6)[nH]5)cc4cn3)cc2)[nH]1)c1ccccc1` [compound 144], with below 1 nM; and `COC(=O)N[C@H](C(=O)N1CCC[C@H]1c1ncc(-c2ccc3cc(-c4ccc(-c5cnc([C@@H]6CCCN6C(=O)[C@H](NC(=O)NC6CC6)c6ccccc6)[nH]5)cc4)ncc3c2)[nH]1)C1CCOCC1` [compound 145], with below 1 nM. Then `COC(=O)N[C@H](C(=O)N1CCC[C@H]1c1ncc(-c2ccc3nc(-c4ccc(-c5cnc([C@@H]6C[C@@H](O)CN6C(=O)[C@@H](NC(=O)OC)C(C)C)[nH]5)cc4)ccc3c2)[nH]1)C(C)C` [compound 146], with below 1 nM; and `COC(=O)N[C@H](C(=O)N1C[C@H](O)C[C@H]1c1ncc(-c2ccc(-c3ccc4cc(-c5cnc([C@@H]6CCCN6C(=O)[C@@H](NC(=O)OC)C6CCOCC6)[nH]5)ccc4n3)cc2)[nH]1)C(C)C` [compound 147], with below 1 nM.

As to `COC(=O)N[C@H](C(=O)N1C[C@H](O)C[C@H]1c1ncc(-c2ccc(-c3ccc4cc(-c5cnc([C@@H]6CCCN6C(=O)[C@H](NC(=O)OC)c6ccccc6)[nH]5)ccc4n3)cc2)[nH]1)C(C)C` [compound 148], the EC50 is below 1 nM. Then `COC(=O)N[C@H](C(=O)N1C[C@H](O)C[C@H]1c1ncc(-c2ccc(-c3ccc4cc(-c5cnc([C@@H]6CCCN6C(=O)[C@H](NC(=O)OC6CCOCC6)c6ccccc6)[nH]5)ccc4n3)cc2)[nH]1)C(C)C` [compound 149], with below 1 nM. Take `COC(=O)N[C@H](C(=O)N1CCC[C@H]1c1ncc(-c2ccc(-c3cc4ccc(-c5cnc([C@@H]6CCCN6C(=O)[C@@H](NC(=O)OC)C(C)C)[nH]5)cc4cn3)c(F)c2)[nH]1)C(C)C` [compound 150]: the EC50 is below 1 nM. In the case of `COC(=O)N[C@H](C(=O)N1CCC[C@H]1c1ncc(-c2ccc3cc(-c4ccc(-c5cnc([C@@H]6CCCN6C(=O)[C@@H](NC(=O)OC)C6CCOCC6)[nH]5)cc4F)ncc3c2)[nH]1)C(C)C` [compound 151], the EC50 is below 1 nM. Under `COC(=O)N[C@H](C(=O)N1CCC[C@H]1c1ncc(-c2ccc3cc(-c4ccc(-c5cnc([C@@H]6CCCN6C(=O)[C@H](NC(=O)OC)c6ccccc6)[nH]5)cc4F)ncc3c2)[nH]1)C(C)C` [compound 152] stands below 1 nM; under `COC(=O)N[C@H](C(=O)N1CCC[C@H]1c1ncc(-c2ccc3cc(-c4ccc(-c5cnc([C@@H]6CCCN6C(=O)[C@H](NC(=O)OC6CCOCC6)c6ccccc6)[nH]5)cc4F)ncc3c2)[nH]1)C(C)C` [compound 153], below 1 nM. On to `COC(=O)N[C@H](C(=O)N1CCC[C@H]1c1ncc(-c2ccc3cc(-c4ccc(-c5cnc([C@@H]6CCCN6C(=O)[C@H](NC(=O)OC6CCOCC6)c6ccccc6)[nH]5)c(F)c4)ncc3c2)[nH]1)C1CCOCC1` [compound 154], for which the EC50 is below 1 nM. On to `COC(=O)N[C@H](C(=O)N1CCC[C@H]1c1ncc(-c2ccc3cc(-c4ccc(-c5cnc([C@@H]6CCCN6C(=O)[C@H](NC(=O)OC)c6ccccc6)[nH]5)c(F)c4)ncc3c2)[nH]1)C(C)C` [compound 155], for which the EC50 is below 1 nM. Then `COC(=O)N[C@H](C(=O)N1CCC[C@H]1c1ncc(-c2ccc(-c3cc4ccc(-c5cnc([C@@H]6CCCN6C(=O)[C@H](NC(=O)OC6CCOCC6)c6ccccc6)[nH]5)cc4cn3)cc2F)[nH]1)C(C)C` [compound 156], with below 1 nM; and `[2H]C([2H])([2H])C([2H])(C([2H])([2H])[2H])[C@@]([2H])(NC(=O)OC)C(=O)N1CCC[C@H]1c1ncc(-c2ccc3nc(-c4ccc(-c5cnc([C@@H]6CCCN6C(=O)[C@@H](NC(=O)OC)C(C)C)[nH]5)cc4F)ccc3c2)[nH]1` [compound 157], with below 1 nM.

Consider `[2H]C([2H])([2H])C([2H])(C([2H])([2H])[2H])[C@@]([2H])(NC(=O)OC)C(=O)N1CCC[C@H]1c1ncc(-c2ccc3nc(-c4ccc(-c5cnc([C@@H]6CCCN6C(=O)[C@@H](NC(=O)OC)C6CCOCC6)[nH]5)cc4F)ccc3c2)[nH]1` [compound 158], for which the EC50 was below 1 nM.

`C=CC[C@H](NC(=O)OC)C(=O)N1CCC[C@H]1c1ncc(-c2ccc3nc(-c4ccc(-c5cnc([C@@H]6CCCN6C(=O)[C@@H](NC(=O)OC)C(C)C)[nH]5)cc4F)ccc3c2)[nH]1` [compound 159]: the EC50 is below 1 nM.

As to `C=CC[C@H](NC(=O)OC)C(=O)N1CCC[C@H]1c1ncc(-c2ccc3nc(-c4ccc(-c5cnc([C@@H]6CCCN6C(=O)[C@@H](NC(=O)OC)C6CCOCC6)[nH]5)cc4F)ccc3c2)[nH]1` [compound 160], the EC50 is below 1 nM. Then `C#CC[C@H](NC(=O)OC)C(=O)N1CCC[C@H]1c1ncc(-c2ccc3nc(-c4ccc(-c5cnc([C@@H]6CCCN6C(=O)[C@@H](NC(=O)OC)C(C)C)[nH]5)cc4F)ccc3c2)[nH]1` [compound 161], with below 1 nM; and `C#CC[C@H](NC(=O)OC)C(=O)N1CCC[C@H]1c1ncc(-c2ccc3nc(-c4ccc(-c5cnc([C@@H]6CCCN6C(=O)[C@@H](NC(=O)OC)C6CCOCC6)[nH]5)cc4F)ccc3c2)[nH]1` [compound 162], with below 1 nM.

In the case of `COC(=O)N[C@H](C(=O)N1CCC[C@H]1c1ncc(-c2ccc(-c3ccc4cc(-c5cnc([C@@H]6CCCN6C(=O)[C@H](NC(=O)OC)C6C=CCC=C6)[nH]5)ccc4n3)c(F)c2)[nH]1)C1CCOCC1` [compound 163], the EC50 was below 1 nM. Under `COC(=O)NC(C(=O)N1CCC[C@H]1c1ncc(-c2ccc3nc(-c4ccc(-c5cnc([C@@H]6CCCN6C(=O)[C@@H](NC(=O)OC)C6CCOCC6)[nH]5)cc4F)ccc3c2)[nH]1)C1CCOC1` (stereo partly shown) [compound 164] stands below 1 nM; under `COC(=O)N[C@H](C(=O)N1CCC[C@H]1c1ncc(-c2ccc3cc(-c4ccc(-c5cnc([C@@H]6CCCN6C(=O)[C@H](NC(=O)OC)c6ccccc6)[nH]5)cc4F)ncc3c2)[nH]1)C1CCOCC1` [compound 165], below 1 nM. Then `COC(=O)N[C@H](C(=O)N1CCC[C@H]1c1ncc(-c2ccc(-c3cc4ccc(-c5cnc([C@@H]6CCCN6C(=O)[C@@H](NC(=O)OC)C6CCOCC6)[nH]5)cc4cn3)c(F)c2)[nH]1)C(C)C` [compound 166], with below 1 nM.

For the origin of these results see US8877707B2, “Inhibitors of HCV NS5A” (Presidio Pharmaceuticals, Inc., priority 2010, dated 2014).
